In publication PMC11852804, “Conformational flexibility is a critical factor in designing broad-spectrum human norovirus protease inhibitors” (Journal of Virology, 2025):
Read-outs that look alike come from different tables or passages of the source.

Experiments:
[1] = tested on: T1, GII.4-Pro HOV; test: FRET protease assay, time-dependent inhibition; type: biochemical, Norovirus norwalkense; conditions: covalent; GII FRET peptide substrate; pH 8.0, 37 °C, 10 mM DTT; corrected for substrate competition
T1 construct: mature protease cut from ORF1 polyprotein; pET-46b(+) His-tag with thrombin site, E. coli XJb(DE3); tag cut with thrombin when used

[2] = biological target: T2, GI.1-Pro (Norovirus Hu/1968/US, UniProt Q83883, R1212A); type: biochemical; conditions: covalent; tight-binding conditions, kchem approximation; GI.1 FRET peptide substrate; pH 8.0, 37 °C, 10 mM DTT; corrected for substrate competition
T2 construct: gene ORF1

[3] = biological target: T3, GII.4-Pro Sydney (Norovirus Hu/GII.4/Sydney/NSW0514/2012/AU, UniProt K4L8Z7, R1120A); conditions: read-out: KI
Source text: (§1) FRET protease assay, time-dependent inhibition on GII.4-Pro Sydney

[4] = biological target: T4, GI.1-Pro (Norovirus Hu/1968/US, UniProt Q83883); test: FRET protease assay, time-dependent inhibition; type: biochemical
T4 construct: gene ORF1; mature protease cut from ORF1 polyprotein; pET-46b(+) His-tag with thrombin site, E. coli XJb(DE3); tag cut with thrombin when used
Source text: FRET protease assay, time-dependent inhibition on GI.1-Pro

[5] = tested on: GII.4-Pro HOV
Source text: FRET protease assay, time-dependent inhibition on GII.4-Pro HOV

[6] = biological target: T3, GII.4-Pro Sydney; test: biochemical; conditions: read-out: kinact/KI (M^-1s^-1)
Source text: as §1

[7] = biological target: T5, GII.3-Pro (Norovirus Hu/Texas/TCH04-577/2004/US, UniProt B2DD26); test: FRET protease assay, time-dependent inhibition; type: biochemical; conditions: covalent; GII FRET peptide substrate; pH 8.0, 37 °C, 10 mM DTT; corrected for substrate competition
T5 construct: mature protease cut from ORF1 polyprotein; tag cut with 3C protease when used

[8] = biological target: T6, GII.4-Pro Sydney (Norovirus Hu/GII.4/Sydney/NSW0514/2012/AU, UniProt K4L8Z7); test: FRET protease assay, time-dependent inhibition; type: biochemical; conditions: covalent; GII FRET peptide substrate; pH 8.0, 37 °C, 10 mM DTT; corrected for substrate competition
T6 construct: mature protease cut from ORF1 polyprotein; tag cut with 3C protease when used

[9] = biological target: T7, (Norovirus norwalkense, UniProt A9YYE3); test: FRET protease assay, time-dependent inhibition; type: biochemical
T7 construct: mature protease cut from ORF1 polyprotein; pET-46b(+) His-tag with thrombin site, E. coli XJb(DE3); tag cut with thrombin when used

[10] = biological target: T5, GII.3-Pro; test: FRET protease assay, time-dependent inhibition; type: biochemical
[11] = biological target: T6, GII.4-Pro Sydney; test: FRET protease assay, time-dependent inhibition; type: biochemical
[12] = biological target: GII.3-Pro (Norovirus Hu/Texas/TCH04-577/2004/US, UniProt B2DD26, R1120A); conditions: read-out: KI

## CCOC(=O)/C=C/[C@H](C[C@@H]1CCNC1=O)NC(=O)[C@@H](CC(=O)[C@@H](NC(=O)c1cc(C)on1)C(C)C)Cc1ccc(F)cc1 [rupintrivir]
[1]
  KI (inactivation): 457 ± 52 µM
[2]
  kinact/KI: 233.5 ± 8.8 M⁻¹ s⁻¹
[3]
  KI (inactivation): 438 ± 299 µM
[4]
  kinact/KI: 294 ± 5.7 M⁻¹ s⁻¹
[5]
  kinact/KI: 6.52 ± 0.77 M⁻¹ s⁻¹
[5]; read-out: KI
  KI (inactivation): 564 ± 513 µM
[6]
  kinact/KI: 4.53 ± 0.59 M⁻¹ s⁻¹
[7]
  KI (inactivation): 1310 µM
[8]
  KI (inactivation): 1090 µM
[9]
  kinact/KI: 5.78 ± 0.21 M⁻¹ s⁻¹
[10]
  kinact/KI: 5.34 ± 0.52 M⁻¹ s⁻¹
[11]
  kinact/KI: 3.73 ± 0.28 M⁻¹ s⁻¹
[12]
  KI (inactivation): 94 ± 38 µM
